The values that follow come from US20070191431A1, “2-Amino-5-piperidinylimidazolone compounds and use thereof for beta-secretase modulation” (Wyeth, priority 2005, published 2007).

Structures are written as SMILES.

A word on the IC50: it is the concentration that gives 50% inhibition. Usually melting point stands for the temperature of the solid-liquid transition.

One series deals with human BACE1 (Homo sapiens, UniProt P56817). Put plainly: BACE-1 fluorescent kinetic assay (Example 88). Conditions: 10 nM enzyme, 25 μM substrate WABC-6, Na-Acetate pH 4.5, room temperature; read-out: BACE1 (IC50 μM). Format: biochemical. The procedure: Evaluation of BACE-1 Binding Affinity of Test Compounds
Fluorescent Kinetic Assay
Dilution and mixing steps: total reaction volume: 100 μL
100 μM substrate dilution in 1× PBS was prepared, and
Fluorescence Readings: Readings at Aex 320 nm and Aem 420 nm are taken every 40 sec for 30 min at room temperature and the linear slope for substrate cleavage rate (vi) determined.

Sequence of human BACE1 (P56817 46-501): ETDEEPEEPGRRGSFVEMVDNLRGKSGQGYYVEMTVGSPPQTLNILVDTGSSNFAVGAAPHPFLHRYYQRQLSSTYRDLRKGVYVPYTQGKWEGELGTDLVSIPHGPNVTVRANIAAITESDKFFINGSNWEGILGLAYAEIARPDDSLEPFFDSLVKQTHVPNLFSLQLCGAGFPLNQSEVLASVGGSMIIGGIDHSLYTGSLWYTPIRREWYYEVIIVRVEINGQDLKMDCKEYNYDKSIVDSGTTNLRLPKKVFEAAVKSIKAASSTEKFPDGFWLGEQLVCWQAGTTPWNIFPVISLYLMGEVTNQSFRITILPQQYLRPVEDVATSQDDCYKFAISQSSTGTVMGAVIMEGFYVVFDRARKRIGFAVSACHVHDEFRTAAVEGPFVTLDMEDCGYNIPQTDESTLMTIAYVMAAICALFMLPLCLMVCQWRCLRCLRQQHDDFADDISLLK

Regarding `CN1C(=O)C(c2cccc(-c3cncnc3)c2)(C2CCN(C(=O)c3ccccc3)CC2)N=C1N` (centres unmarked) [Example 81, 2-amino-5-(1-benzoylpiperidin-4-yl)-3-methy-5-(3-pyrimidin-5-ylphenyl)-3,5-dihydro-4H-imidazol-4-one], the melting point lay within 156 to 158 °C. Besides, the IC50 at human BACE1 lay within 0.01 to 1 µM.

`COCC(=O)Nc1cccc(C2(C3CCN(C(=O)c4cccs4)CC3)N=C(N)N(C)C2=O)c1` (centres unmarked) [Example 55] displayed a melting point of 148 to 152 °C. Further, the IC50 on human BACE1 was in the range of 0.01 to 1 µM.

Take `COCC(=O)Nc1cccc(C2(C3CCN(C(=O)c4ccc(O)cc4)CC3)N=C(N)N(C)C2=O)c1` (centres unmarked) [Example 34, N-(3-{2-Amino-4-[1-(4-hydroxybenzoyl)piperidin4-yl]-1-methyl-5-oxo-4,5-dihydro-1H-imidazol-4-yl}phenyl)-2-methoxyacetamide]: the melting point lay within 184 to 187 °C. Moreover, the IC50 on human BACE1 lay in the range of 0.01 to 1 µM.

For `COc1ccc(C(=O)N2CCC(C3(c4cccc(-c5ccccc5)c4)N=C(N)N(C)C3=O)CC2)cc1OC` (centres unmarked) [Example 13, 2-amino-5-(1,1′-biphenyl-3-yl)-5-[1-(3,4-dimethoxybenzoyl)piperidin-4-yl]-3-methyl-3,5-dihydro4H-imidazol-4-one], the melting point lay within 139 to 141 °C. For the same compound, on human BACE1, the IC50 lay in the range of 0.01 to 1 µM.

`CN1C(=O)C(c2cccc(-c3cccc(Cl)c3)c2)(C2CCN(C(=O)c3ccccc3)CC2)N=C1N` (centres unmarked) [Example 85, 2-amino-5-(1-benzoylpiperidin-4-yl)-5-(3′-chlorobiphenyl-3-yl)-3-methyl-3,5-dihydro-4H-imidazol-4-one] yielded a melting point of 165 to 166 °C. Moreover, at human BACE1, the IC50 was 0.01 to 1 µM.

Compound `COCC(=O)Nc1cccc(C2(C3CCN(C(=O)C(C)C)CC3)N=C(N)N(C)C2=O)c1` (centres unmarked) [Example 42] returned a melting point of 145 to 148 °C. Also, the concentration for half-maximal inhibition (IC50) at human BACE1 is 0.01 to 1 µM.

For the compound `CN1C(=O)C(c2cccc(-c3ccccc3)c2)(C2CCN(C(=O)c3ccc(C#N)cc3)CC2)N=C1N` (centres unmarked) [Example 16, 4-({4-[2-amino-4-(1,1′-biphenyl-3-yl)-1-methyl-5-oxo-4,5-dihydro-1H -imidazol-4-yl]piperidin-1-yl}carbonyl)benzonitrile], the melting point was 152 to 154 °C. Also, the IC50 at human BACE1 is 0.01 to 1 µM.

Consider `CN1C(=O)C(c2cccc(-c3cccnc3F)c2)(C2CCN(C(=O)c3ccccc3)CC2)N=C1N` (centres unmarked) [Example 80, 2-amino-5-(1-benzoylpiperidin-4-yl)-5-[3-(2-fluoropyridin-3-yl)phenyl]-3-methyl-3,5-dihydro-4H-imidazol-4-one], for which the melting point was in the range of 152 to 154 °C. Further, the IC50 on human BACE1 lay in the range of 0.01 to 1 µM.

Take `COCC(=O)Nc1cccc(C2(C3CCN(C(=O)C4CCC(=O)O4)CC3)N=C(N)N(C)C2=O)c1` (centres unmarked) [Example 44]: the melting point was 118 to 120 °C. In addition, the IC50 on human BACE1 was 0.01 to 1 µM.

As to `COCC(=O)Nc1cccc(C2(C3CCN(C(=O)c4ccc(OCc5ccccc5)cc4)CC3)N=C(N)N(C)C2=O)c1` (centres unmarked) [Example 33], the melting point was 149 to 152 °C. The IC50 at human BACE1 was in the range of 0.01 to 1 µM.

For `COCC(=O)Nc1cccc(C2(C3CCN(C(=O)C(F)(F)F)CC3)N=C(N)N(C)C2=O)c1` (centres unmarked) [Example 58], the melting point fell in the range of 120 to 122 °C. On human BACE1, the IC50 fell in the range of 0.01 to 1 µM.

On to `CN1C(=O)C(c2cccc(-c3cc(F)cc(F)c3)c2)(C2CCN(C(=O)c3ccccc3)CC2)N=C1N` (centres unmarked) [Example 87, 2-amino-5-(1-benzoylpiperidin-4-yl)-5-(3′,5′-difluorobiphenyl-3-yl)-3-methyl-3,5-dihydro-4H-imidazol-4-one], for which the melting point is > 150 °C (dec.). For the same compound, on human BACE1, the IC50 fell in the range of 0.01 to 1 µM.

As to `COCC(=O)Nc1cccc(C2(C3CCN(Cc4ccccc4)CC3)N=C(N)N(C)C2=O)c1` (centres unmarked) [Example 59, N{3-[2-Amino-4-(1-benzylpiperidin-4-yl)-1-methyl-5-oxo-4,5-dihydro-1H-imidazol-4-yl]phenyl}-2-methoxyacetamide], the melting point fell in the range of 120 to 123 °C. For the same compound, the IC50 on human BACE1 is greater than 3 µM.

Compound `COCC(=O)Nc1cccc(C2(C3CCN(C(=O)COC)CC3)N=C(N)N(C)C2=O)c1` (centres unmarked) [Example 56] yielded a melting point of 79 to 80 °C. The IC50 at human BACE1 was 1.01 to 3 µM.

Take `CCCc1ccc(C(=O)N2CCC(C3(c4cccc(-c5ccccc5)c4)N=C(N)N(C)C3=O)CC2)cc1` (centres unmarked) [Example 21, 2-amino-5-(1,1′-biphenyl-3-yl)-3-methyl-5-[1-(4-propylbenzoyl)piperidin4-yl]-3,5-dihydro4H-imidazol-4-one]: the melting point was in the range of 133 to 135 °C. Further, the IC50 on human BACE1 is 0.01 to 1 µM.

`C#CCN1CCC(C2(c3cccc(-c4ccccc4)c3)N=C(N)N(C)C2=O)CC1` (centres unmarked) [Example 9, 2-amino-5-(1,1′-biphenyl-3-yl)-3-methyl-5-(1-prop-2-ynylpiperidin4-yl) -3,5-dihydro-4H-imidazol-4-one] had a melting point of 118 to 119 °C. The IC50 on human BACE1 is greater than 3 µM.

In turn, `CN1C(=O)C(c2cccc(-c3ccccc3)c2)(C2CCN(C(=O)c3ccc4c(c3)OCO4)CC2)N=C1N` (centres unmarked) [Example 14, 2-amino-5-[1-(1,3-benzodioxol-5-ylcarbonyl)piperidin-4-yl]-5-(1,1′-biphenyl-3-yl)-3-methyl-3,5-dihydro4H-imidazol-4-one] returned a melting point of 133 to 135 °C. Besides, on human BACE1, the IC50 was 1.01 to 3 µM.

Take `COCC(=O)Nc1cccc(C2(C3CCN(C(=O)c4ccccc4Cl)CC3)N=C(N)N(C)C2=O)c1` (centres unmarked) [Example 45]: the melting point fell in the range of 130 to 133 °C. In addition, the IC50 on human BACE1 is 0.01 to 1 µM.

With `COCC(=O)Nc1cccc(C2(C3CCN(C(=O)c4cccc(F)c4)CC3)N=C(N)N(C)C2=O)c1` (centres unmarked) [Example 50], the melting point lay in the range of 150 to 153 °C. For the same compound, on human BACE1, the IC50 was 0.01 to 1 µM.

Compound `COCC(=O)Nc1cccc(C2(C3CCNCC3)N=C(N)N(C)C2=O)c1` (centres unmarked) [Example 32, N-[3-(2-Amino-1-methyl-5-oxo4-piperldin-4-yl-4,5-dihydro-1H -imidazol-4-yl)phenYl]-2-methoxyacetamide] had a melting point of 170 to 174 °C. Moreover, the IC50 at human BACE1 was greater than 3 µM.

As for `COCC(=O)Nc1cccc(C2(C3CCN(C(=O)c4ccc5c(c4)OCO5)CC3)N=C(N)N(C)C2=O)c1` (centres unmarked) [Example 51], the melting point is > 160 °C (dec.). Also, the half-inhibitory concentration (IC50) at human BACE1 is 0.01 to 1 µM.

Compound `C#CCCC(=O)N1CCC(C2(c3cccc(NC(=O)COC)c3)N=C(N)N(C)C2=O)CC1` (centres unmarked) [Example 47] returned a melting point of 135 to 138 °C. For the same compound, the IC50 at human BACE1 is greater than 3 µM.

In the case of `COCC(=O)Nc1cccc(C2(C3CCN(C(=O)C4CC4)CC3)N=C(N)N(C)C2=O)c1` (centres unmarked) [Example 37], the melting point is > 130 °C (dec.). On human BACE1, the IC50 lay within 0.01 to 1 µM.

In the case of `COCC(=O)Nc1cccc(C2(C3CCN(C(=O)c4ccc5ccccc5c4)CC3)N=C(N)N(C)C2=O)c1` (centres unmarked) [Example 54], the melting point lay within 168 to 170 °C. Moreover, the IC50 on human BACE1 fell in the range of 0.01 to 1 µM.

Turning to `COCC(=O)Nc1cccc(C2(C3CCN(C(=O)c4cc5ccccc5o4)CC3)N=C(N)N(C)C2=O)c1` (centres unmarked) [Example 46], the melting point was in the range of 139 to 142 °C. Also, the IC50 at human BACE1 lay within 0.01 to 1 µM.
